Reference: patent US12016852B2, “Pyrrolidine glycosidase inhibitors” (Asceneuron SA, priority 2018, dated 2024)

target: T1, Human O-GlcNAcase (His-Tagged hOGA) (Homo sapiens, UniProt O60502); assay: Human O-GlcNAcase enzyme inhibition assay; format: biochemical; conditions: 20 nM His-Tagged hOGA, 10 μM FL-GlcNAc, McIlvaine's Buffer pH 6.5, 60 min at room temperature, fluorescence; read-out: OGA IC50
T1 sequence (O60502 1-916): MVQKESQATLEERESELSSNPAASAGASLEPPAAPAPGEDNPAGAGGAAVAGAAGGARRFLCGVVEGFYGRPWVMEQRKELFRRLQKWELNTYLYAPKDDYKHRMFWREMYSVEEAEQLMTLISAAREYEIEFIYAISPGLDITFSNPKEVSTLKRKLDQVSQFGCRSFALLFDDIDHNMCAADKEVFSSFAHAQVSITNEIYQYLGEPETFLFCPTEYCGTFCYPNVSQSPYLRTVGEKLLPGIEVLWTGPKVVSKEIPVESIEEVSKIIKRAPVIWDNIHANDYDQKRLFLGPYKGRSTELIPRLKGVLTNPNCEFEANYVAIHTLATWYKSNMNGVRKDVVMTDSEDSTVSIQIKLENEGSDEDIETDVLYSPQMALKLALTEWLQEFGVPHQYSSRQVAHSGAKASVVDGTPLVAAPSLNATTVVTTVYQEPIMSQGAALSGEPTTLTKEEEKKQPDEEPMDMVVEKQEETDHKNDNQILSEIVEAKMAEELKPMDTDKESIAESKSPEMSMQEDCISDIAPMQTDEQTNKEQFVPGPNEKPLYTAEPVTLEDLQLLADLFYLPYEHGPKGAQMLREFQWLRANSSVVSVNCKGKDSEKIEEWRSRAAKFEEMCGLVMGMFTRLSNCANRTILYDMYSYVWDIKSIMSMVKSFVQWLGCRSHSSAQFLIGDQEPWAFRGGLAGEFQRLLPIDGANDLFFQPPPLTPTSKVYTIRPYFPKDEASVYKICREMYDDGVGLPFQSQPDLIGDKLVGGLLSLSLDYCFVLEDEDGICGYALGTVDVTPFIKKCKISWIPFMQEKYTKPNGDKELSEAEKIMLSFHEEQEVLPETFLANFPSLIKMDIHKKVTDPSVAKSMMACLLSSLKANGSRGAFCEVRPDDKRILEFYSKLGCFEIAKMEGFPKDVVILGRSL
Description: Example B01: Human O-GlcNAcase Enzyme Inhibition Assay
5 μl of the appropriate concentration of a solution of inhibitor in Mcllvaine's Buffer (pH 6.5) in 2% DMSO (for a dose response curve calculation) is added into each well of a 384-well plate (Greiner, 781900). Then, 20 nM of His-Tagged hOGA and 10 μM of FL-GlcNAc (Fluorescein mono-beta-D-(2-deoxy-2-N-acetyl) glucopyranoside; Marker Gene Technologies Inc, M1485) were added to the 384-well plate for a final volume of 20 μl. After incubation for 60 min at room temperature, the reaction was terminated by the addition of 10 μL of stop buffer (200 mM glycine, pH 10.75). The level of fluorescence (λexc 485 nm; (λemm 520 nm) was read on a PHERAstar machine. The amount of fluorescence measured was plotted against the concentration of inhibitor to produce a sigmoidal dose response curve to calculate an IC50. All individual data was corrected by subtraction of the background (Thiamet 3 uM=100% inhibition) whilst 0.5% DMSO was considered as the control value (no inhibition).

| Compound | IC50 |
| --- | --- |
| Cc1cc(-c2ccncc2C)ccc1CN1CCCC1c1ccc2c(c1)OCCO2 (racemic) [Example 57, 4-(4-((2-(2,3-dihydrobenzo[b] [1,4]dioxin-6-yl)pyrrolidin-1-yl)methyl)-3-methylphenyl)-3-methylpyridine] | 200 to 1000 nM |
| Fc1cc(-c2ccccn2)ccc1CN1CCCC1c1ccc2c(c1)OCCO2 (racemic) [Example 41, 2-(4-((2-(2,3-dihydrobenzo[b] [1,4]dioxin-6-yl)pyrrolidin-1-yl)methyl)-3-fluorophenyl)pyridine] | 200 to 1000 nM |
| Cc1cnc(-c2ccc(CN3CCCC3c3ccc4c(c3)OCCO4)cc2)s1 (racemic) [Example 59, 2-(4-((2-(2,3-dihydrobenzo[b] [1,4]dioxin-6-yl)pyrrolidin-1-yl)methyl)phenyl)-5-methylthiazole] | 200 to 1000 nM |
| Cn1ncc2cc(CN3CCCC3c3ccc4c(c3)OCCO4)ccc21 (racemic) [Example 20, 5-((2-(2,3-dihydrobenzo[b] [1,4]dioxin-6-yl)pyrrolidin-1-yl)methyl)-1-methyl-1H-indazole] | 200 to 1000 nM |
| Cc1cc(-c2cccnc2)ccc1CN1CCCC1c1ccc2c(c1)OCCO2 (racemic) [Example 38, 3-(4-((2-(2,3-dihydrobenzo[b] [1,4]dioxin-6-yl)pyrrolidin-1-yl)methyl)-3-methylphenyl)pyridine] | 50 to 200 nM |
| c1cnnc(-c2ccc(CN3CCCC3c3ccc4c(c3)OCCO4)cc2)c1 (racemic) [Example 144] | 50 to 200 nM |
| Cc1csc(-c2ccc(CN3CCCC3c3ccc4c(c3)OCCO4)cc2)n1 (racemic) [Example 68, 2-(4-((2-(2,3-dihydrobenzo[b] [1,4]dioxin-6-yl)pyrrolidin-1-yl)methyl)phenyl)-4-methylthiazole] | 200 to 1000 nM |
| Cc1cc(-c2cccnc2)ccc1CN1CCCC1c1ccc2c(c1)OCCO2 (single isomer, unassigned) [Example 33, (S)-3-(4-((2-(2,3-dihydrobenzo[b] [1,4]dioxin-6-yl)pyrrolidin-1-ylmethyl)-3-methylphenyl)pyridine or (R)-3-(4-((2-(2,3-dihydrobenzo[b] [1,4]dioxin-6-yl)pyrrolidin-1-yl)methyl)-3-methylphenyl)pyridine] | 50 to 200 nM |
| Cn1cc(-c2ccc(CN3CCCC3c3ccc4c(c3)OCCO4)cn2)cn1 (single isomer, unassigned) [Example 7, (S)-5-((2-(2,3-dihydrobenzo[b] [1,4]dioxin-6-yl)pyrrolidin-1-yl)methyl)-2-(1-methyl-1H-pyrazol-4-yl)pyridine or (R)-5-((2-(2,3-dihydrobenzo[b] [1,4]dioxin-6-yl)pyrrolidin-1-yl)methyl)-2-(1-methyl-1H-pyrazol-4-yl)pyridine] | 50 to 200 nM |
| CS(=O)(=O)CCOc1ccc(CN2CCCC2c2ccc3c(c2)OCCO3)cc1 (racemic) [Example 65, 2-(2,3-dihydrobenzo[b] [1,4]dioxin-6-yl)-1-(4-(2-(methylsulfonyl)ethoxy)benzyl)pyrrolidine] | 1000 to 10000 nM |
| Cc1nn(C)c(C)c1-c1ccc(CN2CCCC2c2ccc3c(c2)OCCO3)cc1 (racemic) [Example 55, 4-(4-((2-(2,3-dihydrobenzo[b] [1,4]dioxin-6-yl)pyrrolidin-1-yl)methyl)phenyl)-1,3,5-trimethyl-1H-pyrazole] | 1000 to 10000 nM |
| c1ncc(-c2ccc(CN3CCCC3c3ccc4c(c3)OCCO4)cc2)cn1 (racemic) [Example 39, 5-(4-((2-(2,3-dihydrobenzo[b] [1,4]dioxin-6-yl)pyrrolidin-1-yl)methyl)phenyl)pyrimidine] | 50 to 200 nM |
| Cn1cc(-c2ccc(CN3CCCC3c3ccc4c(c3)OCCO4)nc2)cn1 (single isomer, unassigned) [Example 18, (S)-2-((2-(2,3-dihydrobenzo[b] [1,4]dioxin-6-yl)pyrrolidin-1-yl)methyl)-5-(1-methyl-1H-pyrazol-4-yl)pyridine or (R)-2-((2-(2,3-dihydrobenzo[b] [1,4]dioxin-6-yl)pyrrolidin-1-yl)methyl)-5-(1-methyl-1H-pyrazol-4-yl)pyridine] | 1000 to 10000 nM |
| Cn1cc(-c2ccc(CN3CCCC3c3ccc4c(c3)OCC4)cn2)cn1 (racemic) [Example 12, 5-((2-(2,3-dihydrobenzofuran-6-yl)pyrrolidin-1-yl)methyl)-2-(1-methyl-1H-pyrazol-4-yl)pyridine] | 50 to 200 nM |
| Cc1cc(CN2CCCC2c2ccc3c(c2)OCCO3)ccc1-c1ccncc1 (racemic) [Example 147] | 1000 to 10000 nM |
| c1cnc(-c2ccc(CN3CCCC3c3ccc4c(c3)OCCO4)cc2)cn1 (racemic) [Example 64, 2-(4-((2-(2,3-dihydrobenzo[b] [1,4]dioxin-6-yl)pyrrolidin-1-yl)methyl)phenyl)pyrazine] | 50 to 200 nM |

Other lines, results leading:

| IC50 | Compound |
| --- | --- |
| 200 to 1000 nM | O=c1[nH]nc(-c2ccc(CN3CCCC3c3ccc4c(c3)OCCO4)cc2)o1 (racemic) [Example 76, 5-(4-((2-(2,3-dihydrobenzo[b] [1,4]dioxin-6-yl)pyrrolidin-1-yl)methyl)phenyl)-1,3,4-oxadiazol-2(3H)-one] |
| 200 to 1000 nM | O=C1COCCN1c1ccc(CN2CCCC2c2ccc3c(c2)OCCO3)cc1 (racemic) [Example 61, 4-(4-((2-(2,3-dihydrobenzo[b] [1,4]dioxin-6-yl)pyrrolidin-1-yl)methyl)phenyl) morpholin-3-one] |
| 50 to 200 nM | c1cnn(-c2ccc(CN3CCCC3c3ccc4c(c3)OCCO4)cc2)c1 (single isomer, unassigned) [Example 27, (S)-1-(4-((2-(2,3-dihydrobenzo[b] [1,4]dioxin-6-yl)pyrrolidin-1-yl)methyl)phenyl)-1 H-pyrazole or (R)-1-(4-((2-(2,3-dihydrobenzo[b] [1,4]dioxin-6-yl)pyrrolidin-1-yl)methyl)phenyl)-1H-pyrazole] |
| 200 to 1000 nM | CS(=O)(=O)c1ccc(CN2CCCC2c2ccc3c(c2)OCCO3)cc1 (single isomer, unassigned) [Example 13, (S)-2-(2,3-dihydrobenzo[b] [1,4]dioxin-6-yl)-1-(4-(methylsulfonyl)benzyl) pyrrolidine or (R)-2-(2,3-dihydrobenzo[b] [1,4]dioxin-6-yl)-1-(4-(methylsulfonyl)benzyl) pyrrolidine] |
| 200 to 1000 nM | CC(=O)N1CCN(c2ccc(CN3CCCC3c3ccc4c(c3)OCCO4)cc2)CC1 (racemic) [Example 37, 1-(4-(4-((2-(2,3-dihydrobenzo[b] [1,4]dioxin-6-yl)pyrrolidin-1-yl)methyl)phenyl)piperazin-1-yl)ethan-1-one] |
| 50 to 200 nM | CS(=O)(=O)N1CCN(c2ccc(CN3CCCC3c3ccc4c(c3)OCCO4)cc2)CC1 (single isomer, unassigned) [Example 53, (S)-1-(4-((2-(2,3-dihydrobenzo[b] [1,4]dioxin-6-yl)pyrrolidin-1-yl)methyl)phenyl)-4-(methylsulfonyl)piperazine or (R)-1-(4-((2-(2,3-dihydrobenzo[b] [1,4]dioxin-6-yl)pyrrolidin-1-yl)methyl)phenyl)-4-(methylsulfonyl)piperazine] |
| 1000 to 10000 nM | O=C1CSCCN1c1ccc(CN2CCCC2c2ccc3c(c2)OCCO3)cc1 (single isomer, unassigned) [Example 74] |
| 200 to 1000 nM | c1cc(N2CCOCC2)ccc1CN1CCCC1c1ccc2c(c1)OCC2 (racemic) [Example 24, 4-(4-((2-(2,3-dihydrobenzofuran-6-yl)pyrrolidin-1-yl)methyl)phenyl)morpholine] |
